The subject of assay [1] is HL-60 cells. Briefly: Differentiation helper inducer activity (reductive index, retinoic acid-induced HL-60 differentiation, NBT+). It is filed as cell-based. The settings on record: for Concentration to reach 0.5 reductive index: methyltransferase inhibitors as differentiation helper inducers, HL-60, retinoic acid, 96 hours; for Concentration to reach 0.5 reductive index (effective dose of differentiation inducer reduced to 50%): MAT inhibitors as differentiation helper inducers.
Experimental: The differentiation of cancer cells was measured by using leukemic cancer cells HL-60 to quantitate the NBT+ cells. First, HL-60 cells were subcultured at an initial cell density 1.5×10^5 cells/ml, 10 ml/flask. A set of four flasks were used as the control, wherein only retinoic acid was added as differentiation inducer, the amount of which was adjusted to induce NBT+ cells to the range of 15% to 60%. Another flask was used as the blank which was added the solution only. The total amount of methanol in which retinoic acid was dissolved should not exceed 2%, so as not to affect the differentiation of cancer cells. Each of other sets also comprises four flasks, which were added smaller amounts of retinoic acid, and a blank flask with only the solvent. Different amounts of the differentiation helper inducers were added in each set. The cell numbers in every flask were counted after incubation for 96 hours, and NBT was assayed according to the method of Example 4. Generally, the natural differentiation of the HL-60 cells, i.e. without the action of any of the additives, is usually lower than 4%. In the sets containing only differentiation helper inducer, the differentiation of cells is less than 10%. The value of NBT+ in each flask is required to subtract the value of the blank control.
The value of ED50, i.e., the amount of the differentiation inducer required when NBT+ is 50%, can be obtained by plotting the amount against NBT+. The reductive index can be calculated from the ED50 value. Reductive index=ED50 in the presence of differentiation helper inducer/ED50 with cell differentiation inducer only. The lower the reductive index, the higher the activity of the differentiation helper induced.

In assay [2] the test system is HL-60 cancer cells. Briefly: Completeness of retinoic acid-induced differentiation with helper inducers (NBT test). The class given is cell-based. The settings on record: 96 hours, FIG. 5. The procedure: Differentiation helper inducers can not only decrease the effective amount of the differentiation inducer, but also promote the completeness of differentiation. HL-60 cancer cells were subcultured at an initial cell density of 1.5×10^5 cells/ml. The culture flasks were grouped into three sets; each set includes 4-5 flasks. One flask was used as the blank without additives. One set was added 0.025-0.15 μM retinoic acid as the control; the other two sets were added 4 μM of uroerythrin or vitamin B2. NBT test was conducted as described in Example 4 after incubation for 96 hours. The values thus obtained were subtracted with the value obtained by the blank without additives.

Assay [3] has as its system HBL-100 breast cancer cells. Put plainly: Inhibition of colony formation of HBL-100 breast cancer cells. It is filed as cell-based, human. The procedure:
The activity of cancer cell colony formation is determined by using HBL-100 breast cancer cells according to the method described in Example 4, which is expressed by the percentage of the activity of cancer cell colony formation in a control group in which none of the chemicals is added. A group in which thymidine is used alone, a group in which CDA-II is used alone, and a group in which thymidine and CDA-II are used together (1:1) were tested. […] The synergistic effect is remarkable.
The activity of cancer cell colony formation is determined by using HBL-100 breast cancer cells according to the method described in Example 4. Each culture flask contains 5 ml medium, which contains 3000 HBL-100 cells and different amounts of CDA-11, vitamin C or vitamin B17. After incubation at 37° C. for 5 days, the cells were stained with Giemsa, and numbers of colonies with more than 8 cells were counted under a microscope.
Another indication of the anticancer activity of CDA-II is the inhibition of colony formation of HBL-100 breast cancer cell. At the beginning, the breast cancer cells growing at the exponential phase were washed with HBS solution, then about 2 ml 0.05% trypsin-0.53 mM EDTA was added, and the solution was incubated at 37° C. for 10 minutes. Thereafter, the cell density was measured, then an aliquot was taken and diluted to 3×10^3 cells/ml. 0.5 ml of the diluted solution was added into 4.5 ml culture medium with or without CDA-II and incubated at 37° C. Five days later, the medium was discarded, and the cells were washed with isotonic saline, then methanol was added to fix cells for 15 minutes. The fixed cells were stained for 30 minutes with Giemsa staining solution diluted 20 fold. After the staining solution was discarded, the cells were washed with water and dried. The colony number above 8 cells was counted under a microscope to determine the anticancer activity of CDA-II (the result is shown in table 1).
The experiment was carried out according to FIG. 6. HBL-100 cells were cultured with different dosages of CDA-II, vitamin C and vitamin B17 alone, and with the combination of CDA-II and vitamin C, or the combination of CDA-II and vitamin B17.

Where [4] appears, read: retinoic acid combined with 4 μM helper inducer.

As to `CC[n+]1c(-c2ccccc2)c2cc(N)ccc2c2ccc(N)cc21` [ethidium bromide], the “Concentration to reach 0.5 reductive index” value in assay [1] came to 0.95 µM.

Consider `O=C(O)CNC(=O)c1ccccc1` [hippuric acid], for which the “Concentration to reach 0.5 reductive index (effective dose of differentiation inducer reduced to 50%)” value in assay [1] turned out to be 8 mM. Regarding `CCN(CC)CCNc1ccc(CO)c2sc3ccccc3c(=O)c12` [hycanthone], in assay [1], the “Concentration to reach 0.5 reductive index” value amounted to 2 µM. For the compound `O=C(O)Cc1ccccc1` [phenylacetic acid], in assay [1], the “Concentration to reach 0.5 reductive index (effective dose of differentiation inducer reduced to 50%)” value was determined as 4 mM. Regarding `CC1=C(/C=C/C(C)=C/C=C/C(C)=C/C(=O)O)C(C)(C)CCC1` [retinoic acid], in assay [2] (differentiation inducer (0.025-0.15 μM retinoic acid) used alone), the “Extent of differentiation (NBT+)” value is “about 85%”. For `C=CC1=C(C)C(=O)N=C1C=c1[nH]c(=Cc2[nH]c(O)c(C)c2CCC(=O)O)c(CCC(=O)O)c1C` [uroerythrin], the “Concentration to reach 0.5 reductive index” value in assay [1] is 1.8 µM. The “Extent of differentiation (NBT+)” value in assay [2] (setting [4]) is recorded as 100%.

Take `Cc1cc2nc3c(=O)[nH]c(=O)nc-3n(C[C@H](O)[C@H](O)[C@H](O)CO)c2cc1C` [vitamin B2, riboflavin]: the “Concentration to reach 0.5 reductive index” value in assay [1] turned out to be 3.0 µM. Moreover, in assay [2] (setting [4]), the “Extent of differentiation (NBT+)” value was determined as 100%. With `N#CC(O[C@@H]1O[C@H](CO[C@@H]2O[C@H](CO)[C@@H](O)[C@H](O)[C@H]2O)[C@@H](O)[C@H](O)[C@H]1O)c1ccccc1` (stereo partly shown) [vitamin B17], the “IC50, inhibition of the formation of colonies of HBL-100 human breast cancer cells” value in assay [3] (5 days, FIG. 7) worked out at 130 µg/mL. In assay [3] (vitamin B17 0.05 mg/ml alone), the “Colony formation of HBL-100 cells: inhibition percentage, administered alone” value was found to be 20%. In general, IC50 refers to the concentration at which inhibition is half-maximal. Broadly, the inhibition is the percentage by which the read-out fell short of the control. As for `O=C1O[C@H]([C@@H](O)CO)C(O)=C1O` [vitamin C], the IC50 in assay [3] (Homo sapiens, HBL-100, 120 h, 5 days, FIG. 7, read-out: IC50, inhibition of the formation of colonies of HBL-100 human breast cancer cells) is 530 µg/mL. In addition, in assay [3] (Homo sapiens, HBL-100, vitamin C 0.2 mg/ml alone, read-out: Colony formation of HBL-100 cells: inhibition percentage, administered alone), the inhibition at 200 µg/mL was determined as 12%.

Values taken from patent publication US7232578B2, “Pharmaceutical composition inducing cancer cell differentiation and the use for treatment and prevention of cancer thereof” (Bio Grand Co., Ltd., priority 2005, dated 2007).
